Measurements: US20200261534A1, “NEW TREATMENTS OF MULTIPLE MYELOMA” (priority 2017, published 2020)
Where two headings read alike, the source gives them in different places. Starred links: 1 amine or outer side, 2 acyl side, 3 side chain; linkers in the order of their positions; H or OH if unused. Positions of bridges follow the written chain, without caps; N, C: chain ends. Non-standard residues stand in square brackets, D forms with d. Residues, ends and D or L forms follow the SMILES beside them. ξ: configuration not given here. Biphenyl(4,4'-CH2)2 = c1cc(-c2ccc(C[*:2])cc2)ccc1C[*:1]; ξαMeNle(6-ylidene) = CC(CCCC=[*:3])(N[*:1])C(=O)[*:2]; X1 = CC(CCCCCCC=[*:3])(N[*:1])C(=O)[*:2]; Octanediyl(1,8) = C(CCCC[*:2])CCC[*:1]; ξC = NC(CS)C(=O)O

Key:
Type in all cases: cell-based
[1] = system: A549, epithelial (lung cancer); experiment: MTT viability assay, A549
Description: A549, epithelial (lung cancer), ATCC: CCL-185
(§1) Cell lines A549, MCF-7 and RAMOS were cultured in incubator under CO2 (6%) at 37° C. in DMEM high glucose (Dulbecco's Modified Eagle Solution, Gibco-BRL 31966-21) medium with 10% fetal bovine serum inactivated (FBS) (Gibco-BRL 10106-169). Cell lines HL-60 and MM.1S were cultured in incubator at 37° C. in RPMI-1640 (Sigma R8758) medium with 10% of fetal bovine serum inactivated (FBS) and 2 mM glutamine (Sigma G7513). Cell lines BJ were cultured in incubator under CO2 (6%) at 37° C. in Eagle's Minimum Essential Medium (Sigma, M-2279) with 10% fetal bovine serum inactivated (FBS) (Gibco-BRL 10106-169).
During the amplification step and the assays adherent cells were rinsed with DPBS (Dulbecco's Phosphate Buffered Saline, Sigma D1283) three times and afterward treated for 5 minutes with trypsin ([…]) (Gibco-BRL, 15400054) in solution of DPBS at 37° C., and, once detached, transferred in the culturing medium. No-adherent cells were centrifuged and transferred in the culturing medium. Cells were counted in a Neubauer chamber after labelling with Tripan-Blue. […]
(§2) Cells were incubated with the compounds at the indicated concentrations during 24-72 h in incubator under CO2 atmosphere at 37° C. Then, cell viability was measured by means of MTT (3-(4,5-dimethylthiazol-2-yl)-2,5-diphenyltetrazolium bromide) assay. Stock solution of MTT (475989 Calbiochem) was 5 mg/ml in PBS. 1×.10 μl/well of MTT solution were added and the plate was incubated for 3-4 hr. The medium was discarded and 100 μl of extracting buffer (PBS 1×, 15% SDS, 50% […] N,N-Dimethylformamide, pH 4.7) were added to each well. Plates were incubated for 16 h at room temperature under orbital shaking. Absorbance at 570 nm was finally measured. As negative control (experiment noise) 3 wells were treated with 20 μl/well of a solution of SDS 10% in H2O.
Data analysis was performed calculating the percentage of cell viability normalized vs. the values of negative control, which was considered equal to 100%. The dose/response curve was fitted through the sigmoidal equation dose-response (variable slope) and the IC50 values were calculated as follow: […]

[2] = system: HL-60, promyeloblast (acute myelocytic leukemia, AML); experiment: MTT viability assay, HL-60
Description: HL-60, promyeloblast (acute myelocytic leukemia, AML), ECACC: 98070106 […] During the amplification step and the assays adherent cells were rinsed with DPBS (Dulbecco's Phosphate Buffered Saline, Sigma D1283) three times and afterward treated for 5 minutes with trypsin ([…]) (Gibco-BRL, 15400054) in solution of DPBS at 37° C., and, once detached, transferred in the culturing medium. No-adherent cells were centrifuged and transferred in the culturing medium. Cells were counted in a Neubauer chamber after labelling with Tripan-Blue. […] Cells were seeded at a density of 10000 cells/well in 100 μl of medium in 96 well plates. […] Controls are the untreated cells. Each experiment was performed in triplicate. Cells were incubated with the compounds at the indicated concentrations during 24-72 h in incubator under CO2 atmosphere at 37° C. […] Stock solution of MTT (475989 Calbiochem) was 5 mg/ml in PBS. 1×.10 μl/well of MTT solution were added and the plate was incubated for 3-4 hr. […] Plates were incubated for 16 h at room temperature under orbital shaking. Absorbance at 570 nm was finally measured. […] The dose/response curve was fitted through the sigmoidal equation dose-response (variable slope) and the IC50 values were calculated as follow: Y=Bottom+(Top−Bottom)/(1+10^{[(LogIC50−X)*HillSlope]},

[3] = system: MM.1S, B Lymphoblast (multiple myeloma); experiment: MTT viability assay, MM.1S
Description: MM.1S, B Lymphoblast (multiple myeloma), ATCC: CRL-2974
as §1
During the amplification step and the assays adherent cells were rinsed with DPBS (Dulbecco's Phosphate Buffered Saline, Sigma D1283) three times and afterward treated for 5 minutes with trypsin ([…]) (Gibco-BRL, 15400054) in solution of DPBS at 37° C., and, once detached, transferred in the culturing medium. No-adherent cells were centrifuged and transferred in the culturing medium. Cells were counted in a Neubauer chamber after labelling with Tripan-Blue.
Cells were seeded at a density of 10000 cells/well in 100 μl of medium in 96 well plates. After 24 h, the compounds to be tested were added to calculate the dose/response curve at the starting concentration of 100 μM with serial dilutions (1:1). Controls are the untreated cells. Each experiment was performed in triplicate.
as §2
Data analysis was performed calculating the percentage of cell viability normalized vs. the values of negative control, which was considered equal to 100%. The dose/response curve was fitted through the sigmoidal equation dose-response (variable slope) and the IC50 values were calculated as follow:
Y=Bottom+(Top−Bottom)/(1+10^{[(LogIC50−X)*HillSlope]},
All cell lines were cultured in incubator at 37° C. in RPMI-1640 (Sigma R8758) medium with 10% of fetal bovine serum inactivated (FBS) and 2 mM glutamine (Sigma G7513). During the amplification step cells were centrifuged and transferred into the culturing medium. Cells were counted in a Neubauer chamber after labelling with Tripan-Blue.
as §2, with “peptidomimetic compound (S09)” for “compounds”
Cell lines A549 and MBA-MD231 were cultured in incubator under CO2 (6%) at 37° C. in DMEM high glucose (Dulbecco's Modified Eagle Solution, Gibco-BRL 31966-21) medium with 10% fetal bovine serum inactivated (FBS) (Gibco-BRL 10106-169). […]

[4] = A549, same protocol as Example 2, Table 6, read-out: Compound (IC50)
[5] = HL-60, same protocol as Example 2, Table 6, read-out: Compound (IC50)
[6] = MM.1S, same protocol as Example 2, Table 6, read-out: Compound (IC50)

Row | SMILES | IC50 [1] | IC50 [3] | IC50 [2] | further results
1 | CCc1ccc(/C=C2/SC(=S)NC2=O)cc1 [10058-F4, reference compound] |  |  |  | IC50 ([1]; A549, MTT, incubation 24-72 h, Table 3, read-out: IC50 values): > 100 µM; IC50 ([2]; HL-60, MTT, incubation 24-72 h, Table 3, read-out: IC50 values): 54 ± 2 µM; IC50 ([3]; MM.1S, MTT, incubation 24-72 h, Table 3, read-out: IC50 values): > 100 µM
2 | CC[C@H](C)[C@H](NC(=O)[C@H](Cc1ccc(O)cc1)NC(=O)[C@H](C)NC(=O)C1CSCCCCCCCCSCC(NC(=O)[C@H](CCCCN)NC(=O)[C@@H]2CCCN2C(=O)[C@H](C)N)C(=O)N[C@@H](C(C)C)C(=O)N[C@@H]([C@@H](C)CC)C(=O)N[C@@H](CC(C)C)C(=O)N[C@@H](CCCCN)C(=O)N[C@@H](CCCCN)C(=O)N[C@@H](C)C(=O)N1)C(=O)N[C@@H](CC(C)C)C(=O)N[C@@H](CO)C(=O)O (some centres unmarked) [IDP-P1708160] (H-APK[ξC]VILKKA[ξC]AYILS-OH; linker 4-11 via Octanediyl(1,8); N-terminus and C-terminus assumed) | 65 ± 17 µM | 48 µM |  | IC50 ([3]; 24 h): 35 µM; IC50 ([3]; 72 h): 5 µM
3 | CC[C@H](C)[C@H](NC(=O)[C@H](Cc1ccc(O)cc1)NC(=O)[C@H](C)NC(=O)[C@@H]1CSCc2ccc(cc2)-c2ccc(cc2)CSC[C@H](NC(=O)[C@H](CCCCN)NC(=O)[C@@H]2CCCN2C(=O)[C@H](C)N)C(=O)N[C@@H](C(C)C)C(=O)N[C@@H]([C@@H](C)CC)C(=O)N[C@@H](CC(C)C)C(=O)N[C@@H](CCCCN)C(=O)N[C@@H](CCCCN)C(=O)N[C@@H](C)C(=O)N1)C(=O)N[C@@H](CC(C)C)C(=O)N[C@@H](CO)C(=O)O [IDP-P1708161] (H-APKCVILKKACAYILS-OH; linker 4-11 via Biphenyl(4,4'-CH2)2; N-terminus and C-terminus assumed) | 42 ± 6 µM | 33 ± 15 µM |  | IC50 ([3]; 24 h): 10 µM; IC50 ([3]; 72 h): 15 µM
4 | CC[C@H](C)[C@H](NC(=O)[C@H](Cc1ccc(O)cc1)NC(=O)[C@H](C)NC(=O)[C@@H](NC(=O)[C@H](C)NC(=O)C1(C)CCCC=CCCCCCCC(C)(NC(=O)[C@H](C)N)C(=O)N[C@@H](CCCCN)C(=O)N[C@@H](C(C)C)C(=O)N[C@@H](C(C)C)C(=O)N[C@@H]([C@@H](C)CC)C(=O)N[C@@H](CC(C)C)C(=O)N[C@@H](CCCCN)C(=O)N1)[C@@H](C)O)C(=O)N[C@@H](CC(C)C)C(=O)N[C@@H](CO)C(=O)O (some centres unmarked) [IDP-S19, AXKVVILKXATAYILS] (H-A[X1]KVVILK[ξαMeNle(6-ylidene)]ATAYILS-OH; staple 2-9) |  |  |  | IC50 [1, 4]: > 100 µM; IC50 [2, 5]: > 100 µM; IC50 [3, 6]: > 100 µM
5 | CC[C@H](C)[C@H](NC(=O)[C@H](Cc1ccc(O)cc1)NC(=O)C1(C)CCCC=CCCCCCCC(C)(NC(=O)[C@@H](NC(=O)[C@H](CCCCN)NC(=O)[C@@H]2CCCN2C(=O)[C@H](C)N)C(C)C)C(=O)N[C@@H]([C@@H](C)CC)C(=O)N[C@@H](CC(C)C)C(=O)N[C@@H](CCCCN)C(=O)N[C@@H](CCCCN)C(=O)N[C@@H](C)C(=O)N[C@@H]([C@@H](C)O)C(=O)N1)C(=O)N[C@@H](CC(C)C)C(=O)N[C@@H](CO)C(=O)O (some centres unmarked) [IDP-S21, APKVXILKKATXYILS] (H-APKV[X1]ILKKAT[ξαMeNle(6-ylidene)]YILS-OH; staple 5-12) |  |  |  | IC50 [1, 4]: > 100 µM; IC50 [2, 5]: > 100 µM; IC50 [3, 6]: > 100 µM

Continued, in another order:

Row | IC50 [1] | IC50 [3] | IC50 [2] | SMILES | further results
6 | > 100 µM | > 100 µM | > 100 µM | CC[C@H](C)[C@H](NC(=O)[C@@H](NC(=O)[C@@H](NC(=O)[C@H](CCCCN)NC(=O)[C@@H]1CCCN1C(=O)[C@H](C)N)C(C)C)C(C)C)C(=O)NC1(C)CCCCCCC=CCCCC(C)(C(=O)N[C@@H](CC(C)C)C(=O)N[C@@H](CO)C(=O)O)NC(=O)[C@H](Cc2ccc(O)cc2)NC(=O)[C@H](C)NC(=O)[C@H]([C@@H](C)O)NC(=O)[C@H](C)NC(=O)[C@H](CCCCN)NC(=O)[C@H](CCCCN)NC1=O (some centres unmarked) [IDP-S17, APKVVIXKKATAYXLS] (H-APKVVI[X1]KKATAY[ξαMeNle(6-ylidene)]LS-OH; staple 7-14; N-terminus and C-terminus assumed) | 
7 | > 100 µM | > 100 µM | > 100 µM | CC[C@H](C)[C@@H]1NC(=O)[C@H](Cc2ccc(O)cc2)NC(=O)[C@H](C)NC(=O)[C@H]([C@@H](C)O)NC(=O)[C@H](C)NC(=O)[C@H](CCCCN)NC(=O)C(C)(NC(=O)[C@H](CC(C)C)NC(=O)[C@@H](NC(=O)[C@@H](NC(=O)[C@@H](NC(=O)[C@H](CCCCN)NC(=O)[C@@H]2CCCN2C(=O)[C@H](C)N)C(C)C)C(C)C)[C@@H](C)CC)CCCCCCC=CCCCC(C)(C(=O)N[C@@H](CO)C(=O)O)NC1=O (some centres unmarked) [IDP-S18, APKVVILXKATAYIXS] (H-APKVVIL[X1]KATAYI[ξαMeNle(6-ylidene)]S-OH; staple 8-15; N-terminus and C-terminus assumed) | 
8 | > 100 µM | > 100 µM | > 100 µM | CC[C@H](C)[C@H](NC(=O)C1(C)CCCC=CCCCCCCC(C)(NC(=O)[C@@H](NC(=O)[C@@H](NC(=O)[C@H](CCCCN)NC(=O)[C@@H]2CCCN2C(=O)[C@H](C)N)C(C)C)C(C)C)C(=O)N[C@@H](CC(C)C)C(=O)N[C@@H](CCCCN)C(=O)N[C@@H](CCCCN)C(=O)N[C@@H](C)C(=O)N[C@@H]([C@@H](C)O)C(=O)N[C@@H](C)C(=O)N1)C(=O)N[C@@H](CC(C)C)C(=O)N[C@@H](CO)C(=O)O (some centres unmarked) [IDP-S22, APKVVXLKKATAXILS] (H-APKVV[X1]LKKATA[ξαMeNle(6-ylidene)]ILS-OH; staple 6-13; N-terminus and C-terminus assumed) | 
